From patent publication US20230158152A1, “PROTEOLYSIS REGULATOR AND METHOD FOR USING SAME” (MEDSHINE DISCOVERY INC., priority 2020, published 2023) come the findings set out here.

Where a name gives a salt, the structure may show the parent alone.

In test [1] the test system is human lung cancer cell NCI-H2228. In words: Anti-proliferative effect in human lung cancer cell NCI-H2228 (CellTiter-Glo). It is filed as cell-based. Conditions: NCI-H2228, 72 h, cell proliferation, cultured for 3 days. The method, then:
In this assay, the inhibitory effect of assay compounds on cell proliferation was assayed in human lung cancer cell NCI-H2228.
(§1) (1) Promega CellTiter-Glo luminescent cell viability assay kit (Promega-G7573). (2) 2104 EnVision® plate reader, PerkinElmer.
(§2) The tumor cell line was cultured in a 37° C., 5% CO2 incubator according to the above-mentioned culture conditions. Cells were passaged periodically, and cells in logarithmic growth phase were used for plating.
(1). Cells were stained with trypan blue and viable cells were counted; (2). The cell concentration was adjusted to an appropriate concentration;
(3). 90 μL of cell suspension was added to each well of the culture plate as shown in the table above, and cell-free culture medium was added to the blank control well; (4). The plate was incubated in an incubator at 37° C., 5% CO2, and 100% relative humidity overnight.
Preparation of a mother solution storage plate with 400 times the starting compound concentration: the compounds were diluted serially with DMSO from the highest concentration to the lowest concentration. The plate was prepared freshly every time it was used.
(1). 78 μL of cell culture medium was added to a 96-well plate with a V-shaped bottom. […]
(1). […] The culture plate was left at room temperature for 10 minutes to stabilize the luminescence signal; (9). The luminescent signal was detected on a 2104 EnVision plate reader. […]
Background: In ATP-based viability assays light output follows the ATP content of the culture.

For test [2], the system named is human lung cancer NCI-H2228 cells subcutaneous xenograft tumor. In words: In vivo pharmacodynamic study in subcutaneous xenograft tumor NOD SCID mouse model of human lung cancer NCI-H2228 cells. On the set-up: species or system NOD SCID mice. Conditions: 50 mg/kg subcutaneous injection once a day. On the procedure:
Human lung cancer cell NCI-H2228 (ATCC® CRL-5935™) was cultured in vitro in an adherent monolayer in RPMI 1640 medium supplemented with 10% fetal bovine serum, 100 U/mL penicillin and 100 μg/mL streptomycin in an incubator at 37° C. and 5% CO2. Cells were passaged by routine digestion with trypsin-EDTA twice a week. When the cell saturation was 80%-90% and the number met the requirement, the cells are collected, counted, and inoculated.
NOD SCID mice, female, 6-8 weeks old, weighing 18-22 grams.
0.2 mL (10×10^6 cells) of NCI-H2228 cells (with matrigel, v/v 1:1) were subcutaneously inoculated into the right back of each mouse. The administration by group was started when the average tumor volume reached 171 mm^3. One administration cycle comprised seven days, with administration once a day. The assay compounds were administered by subcutaneous injection for a total of four cycles. The subcutaneous injection doses of the assay compounds WX001 and WX002 were both 50 mg/kg. Tumor diameter was measured twice a week with a vernier caliper, and tumor volume was measured in cubic millimeters and calculated by the following formula: V=0.5a×b^2, where a and b are the long and short diameters of the tumor, respectively. The tumor-inhibitory efficacy of the assay compounds was evaluated by using TGI (%). TGI (%) reflects a tumor growth inhibition rate. TGI (%)=[1−(Average tumor volume at the end of administration of a treatment group−Average tumor volume at the beginning of administration of the treatment group)/(Average tumor volume at the end of treatment of a vehicle control group−Average tumor volume at the beginning of treatment of the vehicle control group)]×100%.
On the technique in general: In xenograft studies the graft and the host belong to different species.

Test [3] concerns the target T1, Recombinant human-derived ALK (Homo sapiens, UniProt Q9UM73).
T1 construct: BAG10812.1; 1058-1620 (terminal) amino acids; GST (N); made in house
In words: Inhibitory activity of compounds against ALK kinase (time-resolved fluorescence resonance energy transfer). In kind it is biochemical. Conditions: 30 μM ATP, 50 nM ULight-poly GT peptide. The method, then:
The inhibitory activity of the compounds on ALK kinase was detected by time-resolved fluorescence resonance energy transfer method, that is, the ratio of fluorescence signals at 665 nm/615 nm was used to represent the activity of the enzyme.
Assay buffer solution: 50 mM 2-[4-(2-hydroxyethyl)-1-piperazinyl]ethanesulfonic acid buffer solution (HEPES) (pH 7.5), 10 mM MgCl2, 1 mM EDTA 0.01%, polyoxyethylene lauryl ether (Brij 35), 2 mM dithiothreitol (DTT).
Enzyme: Recombinant human-derived ALK (gene accession number: BAG10812.1; 1058-1620 (terminal) amino acids) was expressed with a N-terminal GST fusion protein (90 kDa) using a baculovirus expression system.
Enzyme substrate: 50 nM ULight-poly GT polypeptide.
Detection: europium-labeled anti-phosphotyrosine (PT66) antibody.
1. Compounds dissolved in 100% DMSO were added to 384-well plates by acoustic technique; 2. Recombinant human-derived ALK enzyme and enzyme substrate (50 nM ULight-poly GT peptide) or zymolyte (30 μM ATP) were dissolved in freshly prepared assay buffer; 3. The above ALK enzyme and enzyme substrate in the buffer solution were transferred to reaction wells; 4. Then, the zymolyte in the buffer solution was added to the above reaction wells to initiate the reaction; 5. The plate was incubated at room temperature for 1 hour; 6. The detection mixture (PT66 antibody and EDTA) was added to terminate the reaction, and the mixture was incubated at room temperature for 60 minutes; 7. Then, the plate was read using a microplate reader to obtain the ratio of fluorescence signals at 665 nm/615 nm.
Data analysis: Emission ratio (665 nm/615 nm) in the original data was involved in the calculation of the inhibition rate. The concentration and inhibition rate were analyzed using XLfit software 205 mode (4 Parameters Logistic Model) to obtain IC50 value and curve.

Test [4] relates to human acute myeloid leukemia cell MV4-11. The test is described as follows: Anti-proliferative effect in human acute myeloid leukemia cell MV4-11 (CellTiter-Glo). Conditions: MV4-11, 96 h, cell proliferation, incubated for 4 days. It is filed as cell-based. The method, then:
In this assay, the inhibitory effect of assay compounds on cell proliferation in human acute myeloid leukemia cell MV4-11 was detected by ATP fluorescence activity detection (CellTiter-Glo).
as §1, §2
(1). Cells were stained with trypan blue and viable cells were counted; (2). The cell concentration was adjusted to an appropriate concentration; (3). 90 μL of cell suspension was added to each well of the culture plate, and each well contained 6000 cells. In the blank group and other wells, no cells were inoculated, and only 90 μL of culture medium was added; (4). The plate was incubated in an incubator at 37° C., 5% CO2, and 100% relative humidity overnight.
(1) Formulation of 10× drug solution: A sterile round bottom 96-well plate was used, and the concentration of mother solutions of WX007, WX008, WX009, WX010, WX011 and WX012 was 10 mM. 5 μL of compound was added to the first well with 5 μL of 1640 medium, and mixed well to obtain a concentration of 5 mM. 5 μL of compound from the first well was added to the third well containing 45 μL of 1640 medium and mixed well to obtain a concentration of 500 μM. 5 μL of compound from the third well was added to the fourth well containing 45 μL of 1640 medium and mixed well to obtain a concentration of 50 μM. 20 μL of compound from the fourth well was added to the fifth well containing 180 μL of 1640 medium and mixed well to obtain 5 μM mother solution. Another sterile round bottom 96-well plate was used, and 60 μL of 5 μM compound was added to the first well. 30 μL of 5 μM compound was added to the second well with 60 μL of 1640 medium, and so forth. Compounds were serially diluted 3-fold to obtain a total of 9 concentrations. To the blank control was added an equal volume of DMSO in the same dilution way.
(2) Formulation of drug solution with the final concentration: 10 μL of the 10× drug solution as prepared above was added to 90 μL of culture medium in triplicate. To the control group was added an equal volume of DMSO solution, and the cell plate was flicked, so that the solution was mixed well. To the blank group was added 10 μL of 1640 medium. The plate was gently taped, so that the solution was mixed well. The plate was placed back in 37° C., 5% CO2 incubator and incubated for 4 days.
(1) Formulation of the drug solution: A sterile round-bottom 96-well plate was used, and the stock concentration of each compound was 10 mM. 2 μL of compound in 18 μL of DMSO was added to the first well and the mixture was mixed well to obtain a concentration of 1 mM; 10 μL of compound from the first well was added to the third well containing 90 μL of 1640 medium and the mixture was mixed well to obtain a concentration of 100 μM;
(2) For WX058, WX059, WX060 and WX042, 12 μL of solution from the third well obtained above was added to the fourth well containing 108 μL of 1640 medium and the mixture was mixed well to obtain a drug with 10 μM maximum concentration.
(3) Another new sterile round bottom 96-well plate was used, and 60 μL of each drug with the maximum concentration in step (2) was placed in the first well. 60 μL of solution from the first well was added to the second well with 60 μL 1640 medium, and so forth. Compounds were serially diluted 2-fold to obtain a total of 9 concentrations.
(4) For the blank control group, an equal volume of DMSO was added in the same dilution way.
(5) 10 μL of the solution with gradient drug concentrations prepared as above was added to 90 μL of culture medium in triplicate. For the control group, an equal volume of DMSO solution was added. The cell plate was gently tapped, so that the solution was mixed well. […]

T1 sequence (Q9UM73 1058-1620): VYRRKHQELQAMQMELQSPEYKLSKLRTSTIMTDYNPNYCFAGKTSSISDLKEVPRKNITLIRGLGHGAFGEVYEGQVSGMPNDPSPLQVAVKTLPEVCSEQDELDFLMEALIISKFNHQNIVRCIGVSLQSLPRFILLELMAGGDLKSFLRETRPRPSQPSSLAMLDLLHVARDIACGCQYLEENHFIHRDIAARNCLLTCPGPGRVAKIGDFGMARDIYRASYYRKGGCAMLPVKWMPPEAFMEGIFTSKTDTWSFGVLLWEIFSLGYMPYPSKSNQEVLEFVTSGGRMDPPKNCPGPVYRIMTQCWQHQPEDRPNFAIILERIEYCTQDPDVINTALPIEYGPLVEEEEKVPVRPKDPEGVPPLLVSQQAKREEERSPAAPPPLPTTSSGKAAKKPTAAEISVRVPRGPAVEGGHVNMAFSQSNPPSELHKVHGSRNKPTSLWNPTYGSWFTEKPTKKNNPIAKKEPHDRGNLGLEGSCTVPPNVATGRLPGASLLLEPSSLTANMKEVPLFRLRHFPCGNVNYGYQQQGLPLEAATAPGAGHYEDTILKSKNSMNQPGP

Consider `Cc1cc(Nc2ncc(Cl)c(Nc3ccccc3S(=O)(=O)C(C)C)n2)c(OC(C)C)cc1C1CCN(CC(=O)NCc2ccc3c(ccc4occ(C5CCC(=O)NC5=O)c43)c2)CC1` (centres unmarked) [WX002 hydrochloride], for which the IC50 – broadly, the concentration that inhibits the measured activity by half – in test [1] was 160 nM. The “Tumor volume (Day 1)” value in test [2] (Day 1) was found to be 172 ± 11 mm^3. Besides, in test [2] (Day 28), the “TGI (Day 28)” value came to 100.38% and the “Tumor volume (Day 28)” value turned out to be 169 ± 30 mm^3. Besides, the 50% inhibitory concentration (IC50) in test [3] is 15.6 nM.

On to `Cc1cc(Nc2ncc(Cl)c(Nc3ccccc3S(=O)(=O)C(C)C)n2)c(OC(C)C)cc1C1CCN(C(=O)COc2ccc3occ(C4CCC(=O)NC4=O)c3c2)CC1` (centres unmarked) [WX003], for which the IC50 in test [3] was found to be 33.8 nM.

Regarding `Cc1cc(Nc2ncc(Cl)c(Nc3ccccc3S(=O)(=O)C(C)C)n2)c(OC(C)C)cc1C1CCN(CCOc2ccc3occ(C4CCC(=O)NC4=O)c3c2)CC1` (centres unmarked) [WX006], the IC50 in test [3] came to 12.2 nM.

As to `Cc1sc2c(c1C)C(c1ccc(Cl)cc1)=N[C@@H](CC(=O)NCCOc1ccc3c(ccc4occ(C5CCC(=O)NC5=O)c43)c1)c1nnc(C)n1-2` (some centres unmarked) [WX007], the IC50 in test [4] was found to be 202 nM.

Molecule `Cc1sc2c(c1C)C(c1ccc(Cl)cc1)=N[C@@H](CC(=O)NCCOCCOCCOc1ccc3c(ccc4occ(C5CCC(=O)NC5=O)c43)c1)c1nnc(C)n1-2` (some centres unmarked) [WX008] gave an IC50 in test [4] of 22.5 nM.

In test [4], `Cc1sc2c(c1C)C(c1ccc(Cl)cc1)=N[C@@H](CC(=O)NCCCCCCNc1ccc3c(ccc4occ(C5CCC(=O)NC5=O)c43)c1)c1nnc(C)n1-2` (some centres unmarked) [WX009] returned an IC50 of 51.7 nM.

`Cc1sc2c(c1C)C(c1ccc(Cl)cc1)=N[C@@H](CC(=O)NCCNc1ccc3c(ccc4occ(C5CCC(=O)NC5=O)c43)c1)c1nnc(C)n1-2` (some centres unmarked) [WX010] had an IC50 in test [4] of 61.3 nM.

`Cc1sc2c(c1C)C(c1ccc(Cl)cc1)=N[C@@H](CC(=O)NCCOCCOc1ccc3c(ccc4occ(C5CCC(=O)NC5=O)c43)c1)c1nnc(C)n1-2` (some centres unmarked) [WX011] came in with an IC50 in test [4] of 73.8 nM.

In turn, `Cc1sc2c(c1C)C(c1ccc(Cl)cc1)=N[C@@H](CC(=O)NCCCCCCOc1ccc3c(ccc4occ(C5CCC(=O)NC5=O)c43)c1)c1nnc(C)n1-2` (some centres unmarked) [WX012] had an IC50 in test [4] of 70.6 nM.

`Cc1sc2c(c1C)C(c1ccc(Cl)cc1)=N[C@@H](CC(=O)NCCCNC(=O)COc1ccc3occ(C4CCC(=O)NC4=O)c3c1)c1nnc(C)n1-2` (some centres unmarked) [WX042]: in test [4], the IC50 is 35.4 nM.

In test [4], `Cc1sc2c(c1C)C(c1ccc(Cl)cc1)=N[C@@H](CC(=O)NCCCOc1ccc3occ(C4CCC(=O)NC4=O)c3c1)c1nnc(C)n1-2` (some centres unmarked) [WX058] displayed an IC50 of 11.3 nM.

Molecule `Cc1sc2c(c1C)C(c1ccc(Cl)cc1)=N[C@@H](CC(=O)NCCOc1ccc3occ(C4CCC(=O)NC4=O)c3c1)c1nnc(C)n1-2` (some centres unmarked) [WX059] gave an IC50 in test [4] of 16.6 nM.

The molecule `Cc1sc2c(c1C)C(c1ccc(Cl)cc1)=N[C@@H](CC(=O)NCCCCOc1ccc3occ(C4CCC(=O)NC4=O)c3c1)c1nnc(C)n1-2` (some centres unmarked) [WX060] displayed an IC50 in test [4] of 17 nM.
